pIC50: −log10 of the molar value.
Target: T1, ZIKV NS2B-NS3 protease (Zika virus ZIKV/H. sapiens/FrenchPolynesia/10087PF/2013, UniProt A0A024B7W1)
T1 construct: recombinant NS2B-NS3 protease cut from the ZIKV genome polyprotein; codon-optimized synthetic gene in pET22b; His-tag fused; E. coli BL21(DE3); Ni-NTA purified
Assay: fluorescence-based protease inhibition assay, ex […] nm / em […] nm
Assay type: biochemical
Settings: read-out: apparent IC50

T1 sequence (A0A024B7W1 1503-1680): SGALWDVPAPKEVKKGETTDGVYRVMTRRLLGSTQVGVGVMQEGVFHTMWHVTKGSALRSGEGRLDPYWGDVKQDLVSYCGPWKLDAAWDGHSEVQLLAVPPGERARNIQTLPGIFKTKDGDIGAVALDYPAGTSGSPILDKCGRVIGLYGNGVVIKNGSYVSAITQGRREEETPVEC

With `O=[N+]([O-])c1ccc(Nc2ccc3[nH]ncc3c2)nc1N1CCNCC1` [compound 1] as the compound, how does the pIC50 read?
The pIC50 was 5.82.
